Measurements published in patent US8790883B2, “Methods of identifying NF-κB inhibitors” (priority 2003, dated 2014).
Ends that are not written are not given here. Peptide text beside a SMILES is read from it. * marks the point of attachment. BODIPYFLEthylmaleimide = Cc1cc(C)n2c1C=C1C=CC(CCC(=O)NCCN3C(=O)CC(*)C3=O)=[N+]1[B-]2(F)F; BODIPY = not defined here; Cam = NC(=O)C*

Key:
[1] = test system: LPS-induced NF-κB activation; experiment: NF-κB inhibition assay, first procedure: LPS-induced NF-κB dependent β-galactosidase reporter in 70Z/3-C3 cells; type: cell-based, murine; settings: for LPS-induced NF-κB activation in presence of peptide: 20 μM peptide 2 h, LPS (3 μg/ml) 5 h, 70Z3-C3 cells
Protocol: The resulting cell line, 70Z3-C3, was incubated for 2 hours in the absence or in the presence of 20 μM of antennapedia peptide (Ant), or BODIPY-labeled antennapedia peptide (BODIPY-Ant), or BODIPY-labeled antennapedia peptide coupled to CC2 (BODIPY-Ant-CC2) or LZ (BODIPY-Ant-LZ) peptides, After peptide internalization, cells were treated for 5 hours with LPS (3 μg/ml, (+) in left panel) or untreated (right panel and (−) in left panel) and the NF-κB activity was measured by β-galactosidase assay. Error bars represent the standard deviation of three separate experiments. (B) Concentration dependence of inhibition of LPS-induced NF-κB activation by BODIPY-Ant-CC2 peptide (left panel) or BODIPY-Ant-LZ peptide (right panel). Cells were treated as in (A) but with different concentration of peptide as indicated. The potential of each peptide to inhibit LPS-induced NF-κB activation was measured by determining the IC50 value that correspond to 50% inhibition of LPS-induced NF-κB activation as compared to the control (no peptide) (C). (D) Effect of the N-fusion sequence of antennapedia on the inhibition of NF-κB activation. Control (no peptide) or CC2, or LZ peptides, with (BODIPY-ANT-CC2, BODIPY-ANT-LZ) or without the antennapedia sequence at the N-terminus (CC2, LZ) were incubated for 2 hours with 70Z3-C3 cells followed with (+) or without (−) the LPS-treatment for 3 hours. NF-κB activity was then measured by β-galactosidase assay.
In a first procedure 2.2×10^5 70Z/3-C3 cells in 220 μl of RPMI 1640 supplemented with 10% fetal calf serum (FCS) and 50 μM β-mercaptoethanol were placed in a 96-well plate and incubated with various concentrations of peptide (0 to 20 μM) at 37° C. in 5% CO2 incubator. After two hours an equal portion (100 μl) of each cell sample transferred in two wells containing each 10^5 cells. One aliquot of cells was then treated for 5 hours with lipopolysaccharides from Salmonella abortus (Sigma) at 0.5 μg/ml final concentration, and the other one left-treated. After 5 hours, cells were centrifuged at 400×g for 5 min at room temperature and the cell pellets were washed three times with cold PBS (250 μl) by centrifugation. Cells were then lysed in the lysis buffer (25 mM tris-phosphate buffer at pH 7.8 containing 8 mM magnesium chloride, 1 mM dithioerythreitol, 1% Triton X-100, 15% glycerol and a protease inhibitor mixture (Roche)), and samples were centrifuged at 4° C. for 20 min to clarify the lysate. The supernatant was then kept on ice, and 30 μl was then assayed to measure the β-galactosidase activity with a plate luminometer (Berthold) using the GALACTON-STAR™ as chemiluminescent substrate (BD Biosciences Clontech, Bronstein et al., 1989). Background of reaction was measured by mixing for 1 hour 30 μl of lysis buffer with the reaction buffer (196 μl) and the GALACTON-STAR™ substrate (4 μl) provided by BD Biosciences. In a second procedure and a more stringent assay, 70Z/3-C3 cells (2.2×105 in 220 μl medium) were centrifuged at 400×g at room temperature after peptide internalization for 2 hours, and cell pellets were washed three times with 200 μl of PBS by centrifugation. Cells were then diluted three times with complete medium, and allowed to grow for at least 24 hours. The following steps are identical to the first procedure.
To analyze the inhibition potential of LPS-induced NF-κB activation by cell permeable BODIPY-Ant-CC2 and BODIPY-Ant-LZ peptides, the present inventors stably transfected the murine pre-B 70Z3 cell line with p12XlacZ-kB, which bears the β-galactosidase reporter gene under the control of the NF-κB transcription factor.

[2] = Analytical gel filtration, oligomeric states of peptides; type: physicochemical; settings: 10 μM, Superdex 75, buffer with 0.1 mM DDM
Protocol: All peptides were loaded at a 10 μM concentration on a superdex 75 HR10/30 column equilibrated in a buffer containing 0.1 mM DDM to improve recovery (see “Materials and methods”). Chromatographic profiles of the CC2 mutant (dashed line) and the CC2 wild type (solid line) fused (BODIPY-Ant-CC2 (WT), BODIPY-Ant-CC2 (Mu), or not fused to the antennapedia sequence (CC2 (WT), CC2 (Mu)) are shown in left panels, and elution profiles of the LZ mutant (dashed line) and the wild type (solid line) fused (BODIPY-Ant-LZ (WT), BODIPY-Ant-LZ (Mu), or not fused to the antennapedia sequence (LZ (WT), LZ (Mu)) are represented in right panels. Elution volumes of globular protein markers are indicated by arrows: Oval, ovalbumin (43 kDa); Chym, chymotrypsinogene A (25 kDa); Ribo, Ribonuclease (13.4 kDa) and Apro, aprotinin (6.5 kDa).
The oligomeric states of peptides were determined by filtration as described in Traincard et al., 2003. In brief, 500 μl samples were loaded on a SUPERDEX™ 75 HR 10/30 column equilibrated in 50 mM Tris-HCl pH 8.0 containing 200 mM NaCl and 0.1 mM DDM, at a constant flow rate of 0.4 ml/min. The presence of the DDM detergent was added in the equilibrium buffer to minimize the adsorption in the column and to increase the peptide recovery. The column was calibrated in the same equilibrium buffer with blue dextran 2000 (void volume), dithioerythritol (total volume), bovine serum albumin (67 kDa, Rs=35.2 Å), ovalbumine (43 kDa, Rs=27.5 Å), chymotrypsinogen A (25 kDa, Rs=21.1 Å), ribonuclease A (13.7 kDa, Rs=16.4 Å), cytochrome C (12.4 kDa, Rs=17.7 Å) and aprotinin (6.5 KDa, Rs=13.5 Å).

[3] = test system: human retinoblastoma cell lines Y79; experiment: Cell death assay (MTS) in retinoblastoma cell line Y79; type: cell-based; settings: for Induction of Y79 cell death: 3 hours, various concentrations, peptides without BODIPY; for Y79 cells died: 5 μM concentration, longer treatment (FIG. 8C)
Protocol: Rb cell line Y79 were treated with various concentration of the Ant-CC2 (WT) (filled squares) or Ant-CC2 (Mu) (open squares) (A), or Ant-LZ (WT) (filled circles), or Ant-LZ (Mu) (open circles) (B), or Ant peptide (open triangle) (C) for 3 hours (A, B) or 16 hours (C). Cell survival was then evaluated using the MTS assay as described in “Materials and methods”
The detection of cell death was performed using the MTS assay provided by Promega (CellTiter 96® AQueous one solution cell proliferation assay). Briefly, 0.3×10^6 Y79 cells in 450 μl were treated with 50 μl of the wild type Ant-CC2 and Ant-LZ peptides (0.1 to 20 μM) or their mutants Ant-CC2 (Mu), Ant-LZ (Mu) or the Ant or left untreated in serum-free RPMI medium at 37° C. After an incubation of […], an aliquot of the cell suspension (200 μl, 0.12×10^6 cells), was then transferee in 96-well plates and mixed with the MTS solution (40 μl) containing the MTS compound and the phenazine ethosulfate. Two hours after, the quantity of formazan produced by viable cells was measured using an automated microplate reader (Bio-TeK Instruments, INC) at 490 nm absorbance. Cell survival was observed under microscope and was estimated as a percentage of the value of untreated controls. The background of the reaction was determined by mixing the MTS solution with cell-free RPMI medium. To increase the sensitivity of the cell death assay, the present inventors used peptides devoid of BODIPY-labeling because the absorption spectra of the fluorophor overlaps with that of the formazan product. All experiments were repeated twice and each experiment condition was repeated in duplicate wells in each experiment.

[4] = test system: LPS-induced NF-κB activation; experiment: More stringent NF-κB inhibition assay, second procedure: peptide internalization, washing, 24 h growth, then LPS; type: cell-based, murine; settings: 10 μM peptide
Excerpt: Left panels show a helical wheel diagram of CC2 (A) and LZ (B) peptides. The view is from the top the molecule. The (a) through (g) positions, which are an essential feature of coiled coil sequence (Vinson, 2002, Mol. Cell. Biol.) represent sequential positions in each peptide sequence. The first (a) and fourth (d) positions that are generally occupied by hydrophobic amino acids constitute the hydrophobic core for parallel as well as antiparallel-coiled coils. Mutations that were introduced in (a) positions of the CC2 variant (BODIPY-Ant-CC2 (Mu); shown as residues 6-40 of SEQ ID NO:3, with glycine mutations corresponding to residues 6-40 of SEQ ID NO:5) or in (d) positions of the LZ variant (BODIPY-Ant-(Mu) are shown. In the right panels, 70Z3-C3 cells were incubated for 2 hours in the absence (control) or in the presence of 10 μM of cell permeable wild type (BODIPY-Ant-CC2 (WT)) or mutant (BODIPY-Ant-CC2 (Mu)) CC2 peptides (A) or wild type (BODIPY-Ant-LZ (WT)) or mutant (BODIPY-Ant-(Mu)) LZ peptides (B). The cells were then extensively washed to remove the excess peptide which had not been internalized and the cells were then diluted three times and allowed to grow for 24 hours before treatment for 5 hours with (+) or without LPS (−). NF-κB activity was measured using the β-galactosidase assay. Error bars represent the standard deviation of two independent experiments.
(A) Sequence alignment of the NEMO-derived LZ (residues 301-336 of SEQ ID NO: 12) and the GCN4 peptides (residues 23-55 of SEQ ID NO:8). Both coiled-coil motifs were aligned using clustalX. Identical and similar amino acid residues (shaded) are indicated by (!) or (*), respectively. (B) Overview and helical wheel diagram of the GCN4 coiled-coil (top view). The amino-acid sequence of GCN4 is shown with its corresponding [a-g] positions and residues that differ from the corresponding NEMO-derived LZ sequence are boxed according to their degree of conservation. Identical (open square) and similar residues (open triangle) are indicated. […] NF-κB activity was measured using the b-galactosidase assay. […]

[5] = Cytotoxicity of NLM-DR derived peptides (MTS, FACS, microscope), Table 2

B-CRQIKIWFQNRRMKWKKLKAQADIYKADFQAERHAREKLVEKKEYLQEQLEQLQREFNKL (C(BODIPY)RQIKIWFQNRRMKWKKLKAQADIYKADFQAERHAREKLVEKKEYLQEQLEQLQREFNKL-NH2; not fully specified (N-terminus); reading uncertain) [BODIPY-Ant-LZ (WT)]
LPS-induced NF-κB activation in presence of peptide [1]: decreased significantly | LPS-induced NF-κB activation in presence of peptide ([1]; listed as “Leucine zipper” peptide): completely eliminates cell response

LKAQADIYKADFQAERHAREKLVEKKEYSQEQLEQSQREFNKL [LZ (Mu)]
Oligomeric state by gel filtration [2]: still detected dimerization

B-CRQIKIWFQNRRMKWKK ({BODIPY}-CRQIKIWFQNRRMKWKK; reading uncertain) [BODIPY-Ant, reference compound]
LPS-induced NF-κB activation in presence of peptide [1]: same level of NF-κB activation as the control

Ant-CC2 (Mu): mutant Ant-CC2 devoid of BODIPY-labeling (SEQ ID NO: 4) (Ac-CRQIKIWFQNRRMKWKKSKGMQLEDLRQQGQQAEEAGVAKQELGDKLKEEAEQHKIV-NH2)
Induction of Y79 cell death [3]: did not induce concentration cell death

Ant: antennapedia/penetratin internalization peptide without BODIPY label (SEQ ID NO: 1) (CRQIKIWFQNRRMKWKK) [reference compound]
LPS-induced NF-κB activation in presence of peptide [1]: same level of NF-κB activation as the control | Effect on Y79 cell survival, longer treatment ([3]; 16 hours (FIG. 8C)): did not affect cell survival

B-CRQIKIWFQNRRMKWKKSKGMQLEDLRQQGQQAEEAGVAKQELGDKLKEEAEQHKIV (C(BODIPY)RQIKIWFQNRRMKWKKSKGMQLEDLRQQGQQAEEAGVAKQELGDKLKEEAEQHKIV-NH2; not fully specified (N-terminus); printed as B-CRQIKIWFQNRRMKWKKSKGMQLEDLRQQGQQAEEAGVAKQELGDKLKEEAEQHKIV; reading uncertain) [BODIPY-Ant-CC2 (Mu)]
Effect on LPS-induced NF-κB activation [4]: did not affect the NF-κB activation

CC[C@H](C)[C@H](NC(=O)[C@H](CC(=O)O)NC(=O)[C@H](C)NC(=O)[C@H](CCC(N)=O)NC(=O)[C@H](C)NC(=O)[C@H](CCCCN)NC(=O)[C@H](CC(C)C)NC(=O)[C@H](CCCNC(=N)N)NC(=O)[C@H](CCCNC(=N)N)NC(=O)[C@H](CCCNC(=N)N)NC(=O)[C@H](CCC(N)=O)NC(=O)[C@H](CCCNC(=N)N)NC(=O)[C@H](CCCNC(=N)N)NC(=O)[C@H](CCCCN)NC(=O)[C@H](CCCCN)NC(=O)[C@H](CCCNC(=N)N)NC(=O)CNC(=O)[C@H](Cc1ccc(O)cc1)NC(=O)[C@H](CSC1CC(=O)N(CCNC(=O)CCC2=[N+]3C(=Cc4c(C)cc(C)n4[B-]3(F)F)C=C2)C1=O)NC(C)=O)C(=O)N[C@@H](Cc1ccc(O)cc1)C(=O)N[C@@H](CCCCN)C(=O)N[C@@H](C)C(=O)N[C@@H](CCCNC(=N)N)C(=O)N[C@@H](Cc1ccccc1)C(=O)N[C@@H](CCC(N)=O)C(=O)N[C@@H](C)C(=O)N[C@@H](CCC(=O)O)C(=O)N[C@@H](CCCNC(=N)N)C(=O)N[C@@H](Cc1c[nH]cn1)C(=O)N[C@@H](C)C(=O)N[C@@H](CCCNC(=N)N)C(=O)N[C@@H](CCC(=O)O)C(=O)N[C@@H](CCCCN)C(N)=O (stereo partly shown) [BODIPY-TAT-NLM-DR] (Ac-C(BODIPYFLEthylmaleimide)YGRKKRRQRRRLKAQADIYKARFQAERHAREK-NH2)
Cytotoxicity Cell morphology FACS [5]: no | Cytotoxicity Cell morphology Microscope [5]: no

Ac-C(Cam)RQIKIWFQNRRMKWKKLKAQADIYKADFQAERHAREKLVEKKEYLQEQLEQLQREFNKL-NH2 [Ant-LZ]
Y79 cells died [3]: 80%

Ant-LZ (Mu): mutant Ant-LZ devoid of BODIPY-labeling (SEQ ID NO: 8) (Ac-CRQIKIWFQNRRMKWKKLKAQADIYKADFQAERHAREKLVEKKEYSQEQLEQSQREFNKL-NH2)
Induction of Y79 cell death [3]: not

Ac-C(Cam)RQIKIWFQNRRMKWKKSKGMQLEDLRQQLQQAEEALVAKQELIDKLKEEAEQHKIV-NH2 [Ant-CC2]
Y79 cells died [3]: 55%

LKAQADIYKADFQAERHAREKLVEKKEYLQEQLEQLQREFNKL [LZ (WT)]
Oligomeric state by gel filtration [2]: dimer | LPS-induced NF-κB activation, peptides not fused to antennapedia ([1]; peptide 2 h, LPS 3 h, 70Z3-C3 cells (FIG. 3D)): same level of activation as the control

SKGMQLEDLRQQGQQAEEAGVAKQELGDKLKEEAEQHKIV [CC2 (Mu)]
Oligomeric state by gel filtration [2]: lost its ability to oligomerize
